Data: patent US10434074B2, “Peptide and small molecule agonists of EPHA and uses thereof” (CASE WESTERN RESERVE UNIVERSITY, priority 2004, dated 2019)
Entries after “also recorded” stand apart in the source; their conditions may differ. Where no end group is shown, it is not given here.

Assays:
[1] = biological target: T1, EphA2 (Homo sapiens, UniProt P29317); experiment: EphA2 tyrosine phosphorylation (activation) in PC3 cells, immunoprecipitation and anti-phosphotyrosine blot; assay type: cell-based; design: We have previously identified EphA2 as the primary EphA kinase expressed in PC-3 cells; endogenous in cells; host or cells: PC-3 (PC3) and DU-145 cells; conditions: for EphA2 activation (agonist function): PC-3 cells, PY99 blot; for EphA2 tyrosine phosphorylation: several different cell lines
T1 sequence (P29317 24-976): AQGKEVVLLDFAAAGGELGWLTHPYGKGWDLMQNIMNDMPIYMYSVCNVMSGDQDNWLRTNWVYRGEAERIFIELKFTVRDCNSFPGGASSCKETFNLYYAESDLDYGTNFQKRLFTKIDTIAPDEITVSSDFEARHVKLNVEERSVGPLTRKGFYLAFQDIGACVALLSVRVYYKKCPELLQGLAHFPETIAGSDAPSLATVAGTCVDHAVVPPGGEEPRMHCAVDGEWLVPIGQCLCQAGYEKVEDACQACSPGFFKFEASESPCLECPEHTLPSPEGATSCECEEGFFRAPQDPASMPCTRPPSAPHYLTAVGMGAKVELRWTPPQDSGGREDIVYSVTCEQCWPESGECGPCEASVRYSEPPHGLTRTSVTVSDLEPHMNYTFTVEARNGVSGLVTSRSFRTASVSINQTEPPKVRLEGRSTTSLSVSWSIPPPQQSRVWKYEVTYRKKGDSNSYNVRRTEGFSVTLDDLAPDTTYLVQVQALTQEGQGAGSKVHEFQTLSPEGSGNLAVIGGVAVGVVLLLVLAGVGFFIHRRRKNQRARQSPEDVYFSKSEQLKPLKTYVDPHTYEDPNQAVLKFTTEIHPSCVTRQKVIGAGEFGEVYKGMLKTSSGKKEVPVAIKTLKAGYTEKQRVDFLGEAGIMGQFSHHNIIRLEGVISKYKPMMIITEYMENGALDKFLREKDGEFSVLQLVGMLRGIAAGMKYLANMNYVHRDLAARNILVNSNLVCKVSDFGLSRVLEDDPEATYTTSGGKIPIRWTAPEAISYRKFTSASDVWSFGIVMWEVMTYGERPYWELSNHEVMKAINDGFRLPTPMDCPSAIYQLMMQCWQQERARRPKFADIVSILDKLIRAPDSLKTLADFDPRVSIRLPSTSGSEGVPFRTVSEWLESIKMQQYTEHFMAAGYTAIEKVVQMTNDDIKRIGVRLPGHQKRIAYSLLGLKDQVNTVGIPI
Protocol: FIG. 9 illustrates EP1 is an EphA2 Kinase Agonist. PC3 cells (1×10^6 cells/ml) were stimulated with different concentrations of EP1-Fc, GST-EP1, or ephrin-A1-Fc for 10 min. EphA2 was precipitated with anti-EphA2. The immune complex was blotted for PY to detect EphA2 activation (top panel), or for EphA2 to show equal loading (lower panel). Data represents one of three similar experimental results.
FIG. 15 illustrates Identification of EP1 residues critical for EphA2 activation. Four out of five EP1 residues that align with receptor-binding regions of ephrins are critical for EphA2 activation. Mutation to alanine was performed at the indicated positions (see letters in FIG. 15 for reference), and the resultant EP1-Fc mutants were used to stimulate PC3 cells for 10 min at […] for ability to activate EphA2.
PC-3 cells were stimulated with the indicated concentration of dobutamine. EphA2 was immunoprecipitated and tested for activation status by blotting with anti-phosphotyrosine (PY99).
Cells cultured in 6 well plates at 70-80% confluence were stimulated with 0.5 μg/ml Fc, 1 μg/ml epnrinA1-Fc or 20 ng/ml HGF/SF or their combinations as indicated. After stimulation, cells were lysed in RIPA buffer (20 mM Tris, pH7.4, 125 mM NaCl, 20 mM NaF, 0.1% SDS, 10% glycerol, 0.5% sodium deoxycholate, and 1% TX-100, 0.5 mM Na3VO4) containing protease inhibitors (1 mM phenylmethylsulphonyl fluoride, and 2 μg/ml each of aprotinin and leupeptin). Cell lysates were clarified by centrifugation at 13,000 rpm for 5 min. Immunoprecipitation was carried out by adding anti-EphA2 antibody to clarified cell lysates and incubated for 1 hour at 4° C. The immunocomplex was captured using γ-bind beads (Pharmacia). Cell lysates or precipitated proteins were separated on 4-20% Tris-glycine gels (Invitrogen) and transferred to Immobilon-P PVDF membranes (Millipore). […] For quantitative analysis, band densities were measured using KODAK 1D imagine analysis software (Eastman Kodak Company).

[2] = biological target: EphA2 kinase ligand-binding domain (Homo sapiens, UniProt P29317); experiment: BIAcore binding to immobilized EphA2 ligand-binding domain; conditions: EphA2 LBD immobilized on sensor chip
Sequence of EphA2 kinase ligand-binding domain (P29317 28-206 limits assumed): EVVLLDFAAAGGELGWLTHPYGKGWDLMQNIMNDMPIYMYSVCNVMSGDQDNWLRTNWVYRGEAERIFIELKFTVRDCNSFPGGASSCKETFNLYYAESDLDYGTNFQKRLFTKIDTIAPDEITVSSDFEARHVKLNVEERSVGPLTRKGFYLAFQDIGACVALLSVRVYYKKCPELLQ
Protocol: A) EphA2 activation by labetalol. […] The increasing concentrations of labetalol (0, […], 1.25 mM and 2.5 mM) were injected over EphA2 kinase ligand-binding domain immobilized on the sensor chip.
A) Doxazosin activates EphA2.

[3] = test system: EphA2; conditions: several breast cancer cell lines; cited from earlier work
[4] = test system: PC3 cells; experiment: Cell rounding; assay type: cell-based, human; conditions: 10 min
Protocol: PC3 cells cultured on coverslips were stimulated with the indicated concentrations of ephrinA1-Fc, EP1-Fc of Fc for 10 min. Cells were then fixed and photographed.

[5] = test system: pRNS-1 prostate epithelial cells; experiment: Clonal growth, crystal violet staining; assay type: cell-based; conditions: 10 days
Protocol: About 80 pRNS-1 prostate epithelial cells were seeded into each well on 12-well dishes in the presence of indicated concentrations of ephrin-A1-Fc. Cells were cultured for 10 days. Clonal growth was visualized by crystal violet staining.

[6] = test system: PC3 or pRNS-1 cells; experiment: 3H-thymidine incorporation; assay type: cell-based; conditions: overnight stimulation
Protocol: Subconfluent PC3 or pRNS-1 cells were stimulated with the indicated reagents overnight. Next day cells were labeled with ^3H-thymidine for 2 hours. ^3H-thymidine incorporation into isolated DNA synthesis was determined by scintillation counting.

[7] = biological target: T1, EphA2; experiment: Precipitation of 125I-labeled PC3 cell proteins / Western blot (binding specificity); design: We have previously identified EphA2 as the primary EphA kinase expressed in PC-3 cells; endogenous in cells; host or cells: PC-3 (PC3); conditions: PC3 cell lysates
Protocol: FIGS. 8(A-B) illustrate Specific Binding of EP1-Fc to EphA2 Receptor. A: ^125I labeling of PC3 cells. PC3 cells (10×10^6) were labeled with 125I (0.5 mCi). Then, cell lysates were incubated with EP1-Fc fusion peptide, ephrin-A1-Fc (EA1-Fc), or human Fc as indicated. Equal amount of cell lysate was used in each experimental group. […] B: Western Blotting Analysis. PC3 cell lysates were incubated with EP1-Fc fusion protein, ephrin-A1 protein, or human Fc. The immune complexes were blotted with anti-EphA2. EP1 specifically precipitated EphA2.

[8] = test system: GFP-PC-3 cells; experiment: PC3 xenograft growth in nude mice; assay type: in vivo; design: s.c. tumor growth: dose or concentration left out as unconfirmed; conditions: for s.c. tumor growth: vs human IgG
Excerpt: Frozen sections were stained with biotinylated rabbit anti-human Fc, and HRP-conjugated streptoavidin.

[9] = test system: integrin-mediated cell adhesion; experiment: Integrin-mediated cell adhesion to fibronectin; assay type: cell-based
[10] = test system: ERK1/2; experiment: Inhibition of ERK1/2 (MAPK) in PC3 cells, anti-p-ERK1/2 blot; assay type: cell-based, human
Excerpt: FIG. 11 illustrates Activation of EphA2 downstream signaling by EP1-Fc. PC3 cells were stimulated with the indicated concentrations of ephrinA1-Fc or EP1-Fc fusion proteins and lysed in RIPA buffer. EphA2 activation status was examined by immunoprecipiting EphA2 and blotting for phosphotyrosine or EphA2 itself (top panel). Inhibition of ERK1/2, a downstream signaling event of EphA2 characterized in our lab, was examined by blotting total cell lysates with anti-p-ERK1/2.

## CC(CCc1ccc(O)cc1)NCCc1ccc(O)c(O)c1 (stereo not shown) [Dobutamine]
[1]
  EphA2 activation (agonist function): EphA2 agonists

## COc1cc2nc(N3CCN(C(=O)C4COc5ccccc5O4)CC3)nc(N)c2cc1OC (stereo not shown) [Doxazosin]
[2]
  BIAcore binding to EphA2: direct binding
[1]
  EphA2 activation (agonist function): EphA2 agonists

## CC(CCc1ccccc1)NCC(O)c1ccc(O)c(C(N)=O)c1 (stereo not shown) [Labetalol]
[2]
  BIAcore binding to EphA2: binding curves for interaction of labetalol with EphA2 kinase
[1]
  EphA2 activation (agonist function): EphA2 agonists

## N#CC(=C(/N)Sc1ccccc1N)/C(C#N)=C(/N)Sc1ccccc1N [U1026]
[3]
  EphA2 expression: reduced EphA2 expression

## (di-meo-isoquinolin-1-ylmethyl)-et-di-meo-pyrido(2,1-a)isoquinolin, hydrobromide S120103
[1]
  EphA2 activation (agonist function): EphA2 agonistic compound

## EP1-Fc: recombinant EP1 fused to Fc, dimeric (RRCVWSTNVYSMEPALFCAA; not fully specified; cysteine pairing not given here; also: fused to Fc, dimeric)
[4]
  cell morphology (rounding): adapt a round morphology; also recorded: induced PC3 cell rounding
[5]
  clonal cell growth: Inhibition of cell growth
[6]
  cell proliferation / growth: Inhibition of cell proliferation
[1]
  EphA2 tyrosine phosphorylation: induces dose-dependent EphA2 tyrosine phosphorylation
[7]
  specificity of binding among cell surface proteins: only bound to EphA2
[8]; frozen sections stained with anti-human Fc
  targeting to tumors: target to GFP-PC-3 tumors
[8]; i.p.
  tumor growth after three weeks of treatment: lack of effects after three weeks of treatment
  s.c. tumor growth: moderate inhibitory effects on PC3 xenograft growth
[8]; i.p., listed as Ep1-Fc
  s.c. tumor growth: could have suppressive effect on the growth of prostate cancer xenograft

## EphA2-binding peptide from X2CX14CX2 phage display library, SEQ ID NO: 1, RRCVWSTNVYSMEPA LFCAA (RRCVWSTNVYSMEPALFCAA) [EP1]
[6]
  cell proliferation / growth: inhibited cancer cell growth
[1]
  EphA2 tyrosine phosphorylation: binds to EphA2 without activating it
[9]
  integrin function and cell adhesion: suppressed integrin function and causes reduced cell adhesion
[7]
  specificity of binding among cell surface proteins: EphA2 was the only cell surface protein that was targeted by EP1
[10]
  mitogen-activated protein kinase (MAPK): inhibited mitogen-activated protein kinase

## GST-EP1: recombinant EP1 fused to GST (RRCVWSTNVYSMEPALFCAA; cysteine pairing not given here; also: fused to GST)
[1]
  EphA2 tyrosine phosphorylation: induces dose-dependent EphA2 tyrosine phosphorylation
